Data as given in ChEMBL document CHEMBL3616448, “N-Hydroxyimides and hydroxypyrimidinones as inhibitors of the DNA repair complex ERCC1-XPF” (Bioorg Med Chem Lett, 2015).
Activity calls are given as the source filed them. No cut-off for these calls is given here.

Legend:
[1] = target: Flap endonuclease 1 (Homo sapiens, UniProt P39748); assay: Inhibition of FEN1 (unknown origin)
[2] = target: T1, DNA excision repair protein ERCC-1/DNA repair endonuclease XPF (Homo sapiens, UniProt P07992+Q92889); assay: Inhibition of ERCC1-XPF (unknown origin) by high-throughput fluorescence based in-vitro endonuclease assay; format: protein-complex assay
T1 sequence (P07992 whole entry): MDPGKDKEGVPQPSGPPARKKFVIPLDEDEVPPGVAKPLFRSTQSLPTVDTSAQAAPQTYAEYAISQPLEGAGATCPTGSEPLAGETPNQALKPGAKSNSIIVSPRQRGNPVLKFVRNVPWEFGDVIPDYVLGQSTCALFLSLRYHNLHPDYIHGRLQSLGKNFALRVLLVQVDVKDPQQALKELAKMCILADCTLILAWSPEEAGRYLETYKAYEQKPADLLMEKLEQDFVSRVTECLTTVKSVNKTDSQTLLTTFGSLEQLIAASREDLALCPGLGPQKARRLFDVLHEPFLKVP
T1 sequence (Q92889 whole entry): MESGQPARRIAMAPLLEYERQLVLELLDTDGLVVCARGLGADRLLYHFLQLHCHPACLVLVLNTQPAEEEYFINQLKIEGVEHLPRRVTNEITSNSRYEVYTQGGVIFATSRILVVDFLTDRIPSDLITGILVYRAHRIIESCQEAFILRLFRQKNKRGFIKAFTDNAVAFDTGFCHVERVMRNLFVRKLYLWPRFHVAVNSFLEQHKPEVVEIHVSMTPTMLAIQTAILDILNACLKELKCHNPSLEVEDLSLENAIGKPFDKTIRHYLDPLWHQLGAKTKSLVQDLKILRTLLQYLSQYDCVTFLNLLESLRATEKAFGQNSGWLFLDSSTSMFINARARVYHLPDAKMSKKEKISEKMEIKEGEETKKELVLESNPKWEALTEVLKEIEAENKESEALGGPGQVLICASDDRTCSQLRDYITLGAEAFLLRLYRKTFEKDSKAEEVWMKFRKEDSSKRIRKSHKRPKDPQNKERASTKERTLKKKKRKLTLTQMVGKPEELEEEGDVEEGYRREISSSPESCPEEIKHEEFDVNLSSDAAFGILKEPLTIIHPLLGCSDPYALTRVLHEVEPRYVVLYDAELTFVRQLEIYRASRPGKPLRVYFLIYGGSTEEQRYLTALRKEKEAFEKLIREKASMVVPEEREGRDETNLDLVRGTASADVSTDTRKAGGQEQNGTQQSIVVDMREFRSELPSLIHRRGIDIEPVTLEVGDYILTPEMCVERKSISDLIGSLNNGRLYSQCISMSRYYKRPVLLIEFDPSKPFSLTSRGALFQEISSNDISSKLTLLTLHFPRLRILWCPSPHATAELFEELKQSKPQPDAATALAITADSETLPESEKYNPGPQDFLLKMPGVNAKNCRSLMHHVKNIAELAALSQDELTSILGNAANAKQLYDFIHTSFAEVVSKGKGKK

[3] = target: T2, Deoxyribonuclease-1 (Homo sapiens, UniProt P24855); assay: Inhibition of DNAse1 (unknown origin)
T2 sequence (P24855 whole entry): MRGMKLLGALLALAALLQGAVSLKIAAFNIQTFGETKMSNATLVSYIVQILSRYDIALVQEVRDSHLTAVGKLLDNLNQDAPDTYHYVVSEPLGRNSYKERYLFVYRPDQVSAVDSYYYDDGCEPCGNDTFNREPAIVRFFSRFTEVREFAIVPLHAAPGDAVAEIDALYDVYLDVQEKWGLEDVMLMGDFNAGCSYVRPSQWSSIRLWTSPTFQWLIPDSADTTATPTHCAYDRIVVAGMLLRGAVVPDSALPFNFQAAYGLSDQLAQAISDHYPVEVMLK

[4] = target: T3, DNA excision repair protein ERCC-1/DNA repair endonuclease XPF (Homo sapiens) (UniProt P07992+Q92889); assay: Inhibition of ERCC1-XPF in human A375 cells assessed as potentiation of cisplatin-induced cytotoxicity at 0.1 to 3 uM incubated for 5 days; format: cell-based; settings: A-375
[5] = target: T1, DNA excision repair protein ERCC-1/DNA repair endonuclease XPF; assay: Binding affinity to ERCC1-XPF (unknown origin) by SPR assay; format: protein-complex assay
[6] = Lipophilicity, log D of the compound; format: physicochemical; settings: octanol/water
[7] = Half life in mouse liver microsomes; format: ADME
[8] = target: T3, DNA excision repair protein ERCC-1/DNA repair endonuclease XPF (Homo sapiens); assay: Inhibition of ERCC1-XPF in human A375 cells assessed as reduction in direct nucleotide excision repair of UV-damaged pEGFP plasmid up to 10 uM incubated for 24 hrs by recombinant GFP reporter assay; format: cell-based; settings: A-375
[9] = tested on: HepG2; assay: Cytotoxicity against human HepG2 cells; format: cell-based
[10] = target: T3, DNA excision repair protein ERCC-1/DNA repair endonuclease XPF (Homo sapiens); assay: Binding affinity to ERCC1-XPF (unknown origin) assessed as melting temperature by thermal shift assay; format: protein-complex assay
[11] = tested on: A-375; assay: Cytotoxicity against human A375 cells assessed as reduction in cell number at 0.1 to 3 uM incubated for 5 days; format: cell-based; settings: a-375, 120 h
[12] = Half life in human liver microsomes; format: ADME
[13] = Apparent permeability by PAMPA method; format: physicochemical
[14] = target: T3, DNA excision repair protein ERCC-1/DNA repair endonuclease XPF (Homo sapiens); assay: Inhibition of ERCC1-XPF in human A375 cells assessed as induction of delay in DNA repair by measuring cumulative frequency of cells up to 10 uM pre-incubated for 1 hr before cisplatin exposure for 1 hr by immunohistochemistry based gammaH2AX foci assay; format: cell-based; settings: A-375

Flap endonuclease 1, sequence (P39748 whole entry): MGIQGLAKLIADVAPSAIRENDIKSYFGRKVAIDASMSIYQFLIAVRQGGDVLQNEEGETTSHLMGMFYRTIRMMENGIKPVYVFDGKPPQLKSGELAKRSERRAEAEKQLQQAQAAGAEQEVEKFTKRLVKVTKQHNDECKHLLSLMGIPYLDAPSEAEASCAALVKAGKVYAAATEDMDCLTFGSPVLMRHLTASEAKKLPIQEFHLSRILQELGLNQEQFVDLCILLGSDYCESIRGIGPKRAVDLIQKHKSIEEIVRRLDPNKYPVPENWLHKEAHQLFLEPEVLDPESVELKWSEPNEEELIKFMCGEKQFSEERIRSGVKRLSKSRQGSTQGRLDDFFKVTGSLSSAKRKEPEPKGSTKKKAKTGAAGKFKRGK

CC(C)CCNC(=O)c1nc(C2CCN(C)CC2)[nH]c(=O)c1O
IC50 [1]: > 100 µM | IC50 [2]: 6.9 µM

O=c1[nH]c2cc(N3CCCC3)ccc2c(=O)n1O
IC50 [3]: 27.9 µM | IC50 [1]: 1.1 µM | IC50 [2]: 9.1 µM

Cn1c(-c2cccs2)nc(C(=O)O)c(O)c1=O
IC50 [3]: > 100 µM | IC50 [1]: 88.9 µM | IC50 [2]: 48.8 µM

CNC(=O)c1nc(-c2cccs2)[nH]c(=O)c1O
inhibition [4]: inactive | Kd [5]: 4 µM | logD [6]: 0.5 | IC50 [3]: 67.6 µM | half-life [7]: > 6.67 h | inhibition [8]: inactive | IC50 [1]: 12 µM | IC50 [2]: 0.6 µM | Activity [9]: > 10 µM | ΔTm [10]: 4 °C | Activity [11]: Non-toxic | half-life [12]: 3.02 h | Papp [13]: 31 nm/s | inhibition [14]: inactive

O=c1[nH]c2cc(Nc3ccccc3)ccc2c(=O)n1O
IC50 [3]: 30.2 µM | IC50 [1]: 0.23 µM | IC50 [2]: 3.9 µM

O=C(NCCO)c1nc(-c2cccs2)[nH]c(=O)c1O
IC50 [3]: > 100 µM | IC50 [1]: 4 µM | IC50 [2]: 0.7 µM

O=c1[nH]c2c(-c3ccccc3)csc2c(=O)n1O
IC50 [3]: > 100 µM | IC50 [1]: 0.003 µM | IC50 [2]: 1.8 µM

COC(=O)c1nc(-c2ccccc2)[nH]c(=O)c1O
IC50 [3]: > 100 µM | IC50 [1]: 53.4 µM | IC50 [2]: 16.4 µM

CC(=O)NCCNC(=O)c1nc(-c2cccs2)[nH]c(=O)c1O
IC50 [3]: 62.6 µM | IC50 [1]: 5 µM | IC50 [2]: 0.8 µM

CC(=O)Nc1ccc2[nH]c(=O)n(O)c(=O)c2c1
IC50 [3]: 87 µM | IC50 [1]: 2 µM | IC50 [2]: 6.6 µM

Cc1ccc(-c2coc3c(=O)n(O)c(=O)[nH]c23)cc1
IC50 [3]: > 100 µM | IC50 [1]: 0.057 µM | IC50 [2]: 1.5 µM

O=C(c1nc(-c2cccs2)[nH]c(=O)c1O)N1CCCC1
IC50 [1]: 13.7 µM | IC50 [2]: 4.6 µM

O=c1cc(-c2ccccc2)[nH]c(=O)n1O
IC50 [3]: > 100 µM | IC50 [1]: 0.63 µM | IC50 [2]: 1.5 µM

CC(=O)Nc1cccc2c(=O)n(O)c(=O)[nH]c12
IC50 [3]: > 100 µM | IC50 [1]: 0.038 µM | IC50 [2]: 6.1 µM

CCC(C)NC(=O)c1nc(-c2cccs2)[nH]c(=O)c1O (configuration not stated)
logD [6]: 2.1 | IC50 [3]: > 100 µM | half-life [7]: > 6.67 h | IC50 [1]: 1.3 µM | IC50 [2]: 0.6 µM | Activity [9]: > 10 µM | half-life [12]: > 6.67 h | Papp [13]: 97 nm/s

O=C(Nc1ccc(F)cc1)c1nc(-c2cccs2)[nH]c(=O)c1O
IC50 [1]: 10.5 µM | IC50 [2]: 0.8 µM

CC(C)CCNC(=O)c1nc(C2CCCCN2)[nH]c(=O)c1O (configuration not stated)
IC50 [1]: > 100 µM | IC50 [2]: 6.3 µM

CC(C)CCNC(=O)c1nc(-c2cccs2)[nH]c(=O)c1O
IC50 [1]: 3.5 µM | IC50 [2]: 0.5 µM

COc1nc(-c2cccs2)nc(C(=O)O)c1O
IC50 [2]: > 100 µM

O=C1c2cccc3c(Cl)ccc(c23)C(=O)N1O
IC50 [1]: 0.7 µM | IC50 [2]: 12 µM

NC(=O)c1nc(-c2cccs2)nc(O)c1O
logD [6]: -0.4 | IC50 [3]: > 100 µM | half-life [7]: 2.5 h | IC50 [1]: 23.3 µM | IC50 [2]: 1 µM | Activity [9]: > 10 µM | half-life [12]: 2.32 h | Papp [13]: 7 nm/s

O=C(Nc1cccnc1)c1nc(-c2cccs2)[nH]c(=O)c1O
IC50 [3]: > 100 µM | IC50 [1]: 8.6 µM | IC50 [2]: 0.7 µM

CC(C)CCNC(=O)c1nc(C2CCCCN2C)[nH]c(=O)c1O (configuration not stated)
IC50 [1]: > 100 µM | IC50 [2]: 8.4 µM

O=c1[nH]c2ccccc2c(=O)n1O
IC50 [3]: > 100 µM | IC50 [1]: 0.3 µM | IC50 [2]: 18.1 µM

O=C(NCCN1CCOCC1)c1nc(-c2cccs2)[nH]c(=O)c1O
IC50 [3]: 58.9 µM | IC50 [1]: 4.1 µM | IC50 [2]: 1 µM

CC(=O)Nc1ccc2c(=O)n(O)c(=O)[nH]c2c1
IC50 [3]: > 100 µM | IC50 [1]: 2.1 µM | IC50 [2]: 6.4 µM

CC(C)CCNC(=O)c1nc(-c2ccc(CN(C)C)cc2)[nH]c(=O)c1O
IC50 [1]: 71.3 µM | IC50 [2]: 1.7 µM

COC(=O)c1nc(-c2cccs2)nc(O)c1O
IC50 [3]: > 100 µM | IC50 [1]: 10.1 µM | IC50 [2]: 27.3 µM

CC(C)CCNC(=O)c1nc(-c2ccc(CN3CCOCC3)cc2)[nH]c(=O)c1O
IC50 [1]: 38.1 µM | IC50 [2]: 0.8 µM

CC(C)CCNC(=O)c1nc(C2CCCN(C)C2)[nH]c(=O)c1O (configuration not stated)
IC50 [1]: > 100 µM | IC50 [2]: 25.3 µM

O=c1[nH]c2sccc2c(=O)n1O
IC50 [3]: > 100 µM | IC50 [1]: 0.009 µM | IC50 [2]: 3.9 µM

O=c1c2ccsc2n(Cc2ccccc2)c(=O)n1O
IC50 [3]: > 100 µM | IC50 [1]: 0.68 µM | IC50 [2]: 80.4 µM

CCCNC(=O)c1nc(-c2cccs2)[nH]c(=O)c1O
IC50 [3]: > 100 µM | IC50 [1]: 4.2 µM | IC50 [2]: 2.7 µM

O=C(NCc1ccc(F)cc1)c1nc(-c2cccs2)nc(O)c1O
IC50 [3]: > 100 µM | IC50 [1]: 2.1 µM | IC50 [2]: 4.2 µM

O=C(O)c1nc(-c2ccccc2)nc(O)c1O
IC50 [3]: > 100 µM | IC50 [1]: 16.4 µM | IC50 [2]: 3.9 µM

Cn1c(=O)n(O)c(=O)c2ccccc21
IC50 [3]: > 100 µM | IC50 [1]: 2.1 µM | IC50 [2]: 96.2 µM

O=C1c2cccc3cccc(c23)C(=O)N1O
IC50 [1]: 0.3 µM | IC50 [2]: 30 µM

O=C(O)c1nc(-c2cccs2)nc(O)c1O
IC50 [3]: > 100 µM | IC50 [1]: 10.4 µM | IC50 [2]: 2.9 µM
